The values below come from ChEMBL document CHEMBL5291721, “A preclinical secondary pharmacology resource illuminates target-adverse drug reaction associations of marketed drugs” (Nat Commun, 2023).

Assay [1] deals with T1, Amine oxidase [flavin-containing] A (Homo sapiens, UniProt P21397).
T1 sequence (P21397 whole entry): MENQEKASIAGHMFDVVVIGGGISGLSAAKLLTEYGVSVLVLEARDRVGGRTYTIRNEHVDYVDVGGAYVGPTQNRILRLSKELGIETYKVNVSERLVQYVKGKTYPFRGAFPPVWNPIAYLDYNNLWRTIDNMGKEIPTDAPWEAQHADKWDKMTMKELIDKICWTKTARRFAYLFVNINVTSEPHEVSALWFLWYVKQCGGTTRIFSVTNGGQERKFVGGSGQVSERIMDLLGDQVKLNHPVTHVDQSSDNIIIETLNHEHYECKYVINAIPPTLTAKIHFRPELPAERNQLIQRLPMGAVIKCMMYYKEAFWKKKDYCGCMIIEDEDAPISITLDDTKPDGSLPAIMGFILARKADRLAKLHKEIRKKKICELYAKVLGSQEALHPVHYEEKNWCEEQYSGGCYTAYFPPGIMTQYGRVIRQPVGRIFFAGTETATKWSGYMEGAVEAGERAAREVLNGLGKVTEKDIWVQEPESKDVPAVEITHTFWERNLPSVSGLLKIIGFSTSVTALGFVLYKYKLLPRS
Format: functional.

Assay [2] deals with T2, Glucocorticoid receptor (Homo sapiens, UniProt P04150).
T2 sequence (P04150 whole entry): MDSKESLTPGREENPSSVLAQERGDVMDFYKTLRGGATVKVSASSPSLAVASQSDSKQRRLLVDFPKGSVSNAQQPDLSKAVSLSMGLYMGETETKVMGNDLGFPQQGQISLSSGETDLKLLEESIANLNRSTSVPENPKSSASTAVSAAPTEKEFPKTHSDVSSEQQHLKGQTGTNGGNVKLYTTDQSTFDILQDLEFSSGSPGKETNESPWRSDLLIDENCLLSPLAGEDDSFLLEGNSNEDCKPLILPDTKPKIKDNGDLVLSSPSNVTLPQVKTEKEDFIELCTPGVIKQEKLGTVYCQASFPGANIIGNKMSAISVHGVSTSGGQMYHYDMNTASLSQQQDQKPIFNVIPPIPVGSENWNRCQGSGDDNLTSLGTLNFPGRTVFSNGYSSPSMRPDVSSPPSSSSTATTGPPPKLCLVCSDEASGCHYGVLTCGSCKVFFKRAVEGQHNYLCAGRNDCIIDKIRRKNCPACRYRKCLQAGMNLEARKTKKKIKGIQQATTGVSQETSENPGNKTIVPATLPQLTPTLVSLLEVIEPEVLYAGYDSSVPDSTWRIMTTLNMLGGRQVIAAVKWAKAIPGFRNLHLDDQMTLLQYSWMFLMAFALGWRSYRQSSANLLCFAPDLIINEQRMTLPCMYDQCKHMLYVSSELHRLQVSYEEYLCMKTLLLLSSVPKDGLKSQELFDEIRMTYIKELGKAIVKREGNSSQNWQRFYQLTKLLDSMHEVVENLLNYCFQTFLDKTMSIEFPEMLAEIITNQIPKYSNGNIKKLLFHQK

In assay [3] the target is T3, 5-hydroxytryptamine receptor 2B (Homo sapiens, UniProt P41595). The class given is functional, cell-based.
T3 sequence (P41595 whole entry): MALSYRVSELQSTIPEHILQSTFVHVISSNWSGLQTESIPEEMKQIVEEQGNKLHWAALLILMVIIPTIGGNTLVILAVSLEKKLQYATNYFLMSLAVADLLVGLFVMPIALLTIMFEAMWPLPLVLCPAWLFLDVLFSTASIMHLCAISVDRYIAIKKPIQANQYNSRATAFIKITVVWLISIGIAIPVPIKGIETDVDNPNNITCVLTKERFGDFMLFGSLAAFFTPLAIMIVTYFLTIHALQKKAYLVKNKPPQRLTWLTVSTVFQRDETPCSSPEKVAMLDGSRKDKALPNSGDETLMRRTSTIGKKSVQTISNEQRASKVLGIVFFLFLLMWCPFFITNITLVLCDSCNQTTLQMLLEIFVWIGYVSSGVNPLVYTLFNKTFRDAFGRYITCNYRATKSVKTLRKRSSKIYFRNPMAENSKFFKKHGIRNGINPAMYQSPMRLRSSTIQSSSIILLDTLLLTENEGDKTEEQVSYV
For assay [4], the target named is D(1A) dopamine receptor (Homo sapiens, UniProt P21728). Format: functional, cell-based.
Chain of D(1A) dopamine receptor (P21728 whole entry): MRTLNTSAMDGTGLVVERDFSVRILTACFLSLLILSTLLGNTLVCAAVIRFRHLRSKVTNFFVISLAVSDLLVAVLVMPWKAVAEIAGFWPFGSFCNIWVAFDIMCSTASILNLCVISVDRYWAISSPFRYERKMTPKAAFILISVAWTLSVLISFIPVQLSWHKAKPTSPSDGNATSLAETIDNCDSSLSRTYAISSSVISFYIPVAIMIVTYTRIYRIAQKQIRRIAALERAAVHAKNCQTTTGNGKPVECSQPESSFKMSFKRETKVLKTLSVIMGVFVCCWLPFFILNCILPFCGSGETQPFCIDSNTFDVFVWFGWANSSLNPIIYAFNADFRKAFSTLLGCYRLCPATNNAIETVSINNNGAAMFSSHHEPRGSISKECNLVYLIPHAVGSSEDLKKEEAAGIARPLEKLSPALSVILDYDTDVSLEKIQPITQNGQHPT
Assay [5] addresses T3, 5-hydroxytryptamine receptor 2B. The class given is functional, cell-based. This is another data set of the same source.
For assay [6], the target named is Sodium-dependent dopamine transporter (Homo sapiens, UniProt Q01959).
Chain of Sodium-dependent dopamine transporter (Q01959 whole entry): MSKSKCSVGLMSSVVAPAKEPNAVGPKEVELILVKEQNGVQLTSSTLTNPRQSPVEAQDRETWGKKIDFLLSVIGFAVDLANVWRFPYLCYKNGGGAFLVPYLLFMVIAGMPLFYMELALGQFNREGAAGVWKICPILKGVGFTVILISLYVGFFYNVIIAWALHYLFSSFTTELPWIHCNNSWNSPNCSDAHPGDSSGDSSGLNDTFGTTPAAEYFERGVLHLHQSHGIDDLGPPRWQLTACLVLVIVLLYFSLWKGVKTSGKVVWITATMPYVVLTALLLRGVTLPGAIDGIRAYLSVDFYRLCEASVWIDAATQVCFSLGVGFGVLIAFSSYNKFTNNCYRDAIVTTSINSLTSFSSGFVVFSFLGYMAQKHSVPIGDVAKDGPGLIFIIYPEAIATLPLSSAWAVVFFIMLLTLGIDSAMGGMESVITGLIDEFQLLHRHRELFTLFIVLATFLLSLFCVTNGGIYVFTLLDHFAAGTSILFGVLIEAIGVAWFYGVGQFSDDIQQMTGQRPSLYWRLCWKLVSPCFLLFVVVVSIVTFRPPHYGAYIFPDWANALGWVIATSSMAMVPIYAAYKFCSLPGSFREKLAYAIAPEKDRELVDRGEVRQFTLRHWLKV
For assay [7], the target named is T4, Cannabinoid receptor 1 (Homo sapiens, UniProt P21554). The class given is functional, cell-based.
T4 sequence (P21554 whole entry): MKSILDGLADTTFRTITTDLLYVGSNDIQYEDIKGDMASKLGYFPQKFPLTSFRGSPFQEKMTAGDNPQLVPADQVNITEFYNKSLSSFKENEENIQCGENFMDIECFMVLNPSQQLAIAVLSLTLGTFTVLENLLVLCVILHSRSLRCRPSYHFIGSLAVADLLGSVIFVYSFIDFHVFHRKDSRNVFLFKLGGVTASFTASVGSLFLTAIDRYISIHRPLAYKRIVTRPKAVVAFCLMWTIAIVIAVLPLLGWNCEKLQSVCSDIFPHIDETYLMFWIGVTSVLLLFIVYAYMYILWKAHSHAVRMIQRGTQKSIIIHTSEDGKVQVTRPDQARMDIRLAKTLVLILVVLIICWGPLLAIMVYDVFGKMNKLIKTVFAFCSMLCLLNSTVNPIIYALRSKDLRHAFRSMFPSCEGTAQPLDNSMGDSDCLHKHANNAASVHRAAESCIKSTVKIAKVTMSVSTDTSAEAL
Assay [8] deals with T5, B2 bradykinin receptor (Homo sapiens, UniProt P30411).
T5 sequence (P30411 whole entry): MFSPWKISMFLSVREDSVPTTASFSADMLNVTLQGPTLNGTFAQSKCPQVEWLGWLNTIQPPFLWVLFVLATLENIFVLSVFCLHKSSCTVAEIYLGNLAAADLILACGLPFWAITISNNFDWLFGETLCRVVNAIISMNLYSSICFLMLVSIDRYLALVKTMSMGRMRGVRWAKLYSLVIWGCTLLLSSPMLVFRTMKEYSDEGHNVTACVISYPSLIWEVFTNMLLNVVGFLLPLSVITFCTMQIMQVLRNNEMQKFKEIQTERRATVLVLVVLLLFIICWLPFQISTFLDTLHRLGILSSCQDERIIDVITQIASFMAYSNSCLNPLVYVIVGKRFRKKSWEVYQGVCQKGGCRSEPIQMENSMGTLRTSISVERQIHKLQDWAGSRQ

For assay [9], the target named is T6, Muscarinic acetylcholine receptor M2 (Homo sapiens, UniProt P08172).
T6 sequence (P08172 whole entry): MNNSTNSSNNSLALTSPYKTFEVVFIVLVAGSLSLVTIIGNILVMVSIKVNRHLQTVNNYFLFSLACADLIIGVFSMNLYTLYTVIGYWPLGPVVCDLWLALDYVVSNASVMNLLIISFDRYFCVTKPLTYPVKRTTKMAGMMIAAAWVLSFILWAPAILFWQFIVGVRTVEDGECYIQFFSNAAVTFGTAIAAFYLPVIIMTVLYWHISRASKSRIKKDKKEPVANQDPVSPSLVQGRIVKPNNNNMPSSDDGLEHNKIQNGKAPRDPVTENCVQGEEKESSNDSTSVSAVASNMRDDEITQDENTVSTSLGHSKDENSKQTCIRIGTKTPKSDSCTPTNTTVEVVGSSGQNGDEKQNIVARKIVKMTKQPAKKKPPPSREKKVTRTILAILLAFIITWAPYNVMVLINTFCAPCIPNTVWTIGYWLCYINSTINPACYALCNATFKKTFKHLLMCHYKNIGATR
Format: functional, cell-based.

Assay [10] concerns the target T4, Cannabinoid receptor 1. Format: functional, cell-based. This is another data set of the same source.
Assay [11] concerns the target T7, Adenosine receptor A3 (Homo sapiens, UniProt P0DMS8).
T7 sequence (P0DMS8 whole entry): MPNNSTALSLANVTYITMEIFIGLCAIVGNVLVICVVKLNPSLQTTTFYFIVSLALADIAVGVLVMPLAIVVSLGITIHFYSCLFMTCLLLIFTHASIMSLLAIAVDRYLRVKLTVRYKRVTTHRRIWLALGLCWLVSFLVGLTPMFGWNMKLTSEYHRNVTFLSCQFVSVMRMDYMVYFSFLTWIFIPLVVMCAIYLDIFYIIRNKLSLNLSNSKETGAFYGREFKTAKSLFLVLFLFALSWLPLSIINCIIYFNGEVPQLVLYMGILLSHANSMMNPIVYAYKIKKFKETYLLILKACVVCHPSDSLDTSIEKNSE
Note: assay procedure not described here.

As for `Nc1ccc(C(=O)O)c(O)c1` [AMINOSALICYLIC ACID], the AC50 in [1], in assay [2], in [3], in assay [4], in [5] and in assay [6] was over 30 µM throughout. Besides, the AC50 in [7], in assay [8], in assay [9], in [10] and in assay [11] was over 30 µM throughout.

On to `CC(=O)OCC(=O)[C@@]1(O)CC[C@H]2[C@@H]3CCC4=CC(=O)CC[C@]4(C)C3=CC[C@@]21C` [ANECORTAVE ACETATE], for which the AC50 (commonly the concentration at which the activity in the assay is half-maximal) is over 10 µM in [1]; 1.7 µM in assay [2]; over 10 µM in assay [3]; over 10 µM in [4]; over 10 µM in assay [5]; over 10 µM in assay [6]. Moreover, the AC50 in assay [7] is over 30 µM; in assay [8] it was over 10 µM; in assay [9] it was over 10 µM; in assay [10], over 30 µM; in assay [11], over 10 µM.

On to `CCN(CC)C(=O)C1CN2CCc3cc(OC)c(OC)cc3C2CC1OC(C)=O` (stereo unspecified) [BENZQUINAMIDE], for which the AC50 in [1] is over 30 µM; in [2], over 30 µM; in assay [3] it was over 30 µM; in [4] it was over 30 µM; in assay [5] it was 0.32 µM; in assay [6], over 30 µM. Also, the AC50 in assay [7], in assay [8], in assay [9], in [10] and in assay [11] was over 30 µM in each case.

In the case of `COc1cc(OC)c(C(=O)CCCN2CCCC2)c(OC)c1` [BUFLOMEDIL], the AC50 in assay [1], in assay [2], in assay [3], in assay [4], in assay [5] and in assay [6] was over 30 µM in each case. Further, the AC50 in [7], in assay [8], in assay [9], in [10] and in assay [11] was over 30 µM in each case.

Turning to `CCCCC1(CC)C(=O)NC(=O)NC1=O` [BUTETHAL], the AC50 in assay [1], in assay [2], in assay [3], in [4], in assay [5] and in [6] was over 30 µM in each case. Besides, the AC50 in [7], in assay [8], in [9], in assay [10] and in [11] was over 30 µM each time.

As to `CCN(CC)CCOC(=O)c1ccc(N)cc1Cl` [CHLOROPROCAINE], the AC50 in [1] was 7.9 µM; in assay [2] it was over 30 µM; in [3], over 30 µM; in assay [4], over 30 µM; in assay [5], over 30 µM; in [6], over 30 µM. The AC50 in assay [7], in [8], in assay [9], in assay [10] and in assay [11] was over 30 µM in each case.

As to `COCCOC(=O)C1=C(C)NC(C)=C(C(=O)OC/C=C/c2ccccc2)C1c1cccc([N+](=O)[O-])c1` (stereo unspecified) [CILNIDIPINE], the AC50 in [1] was over 30 µM; in assay [2], 6.5 µM; in [3], over 30 µM; in assay [4], over 30 µM; in assay [5] it was over 30 µM; in assay [6], over 30 µM. The AC50 was over 30 µM in assay [7]; over 30 µM in assay [8]; over 30 µM in assay [9]; over 30 µM in assay [10]; 4.8 µM in assay [11].

`CCC(C)(Oc1ccc(C2(c3ccc(OC(C)(CC)C(=O)O)cc3)CCCCC2)cc1)C(=O)O` (stereo unspecified) [CLINOFIBRATE]: the AC50 in [1], in [2], in [3], in assay [4], in assay [5] and in [6] was over 30 µM throughout. For the same compound, the AC50 was over 30 µM in assay [7]; over 30 µM in assay [8]; over 30 µM in assay [9]; over 30 µM in [10]; 20 µM in [11].

Take `N[C@H](Cc1cc(I)c(Oc2cc(I)c(O)c(I)c2)c(I)c1)C(=O)O` [DEXTROTHYROXINE]: the AC50 in assay [1] was over 10 µM; in assay [2] it was 25 µM; in assay [3], over 10 µM; in assay [4], over 10 µM; in assay [5], 26 µM; in assay [6], over 30 µM. Also, the AC50 in [7] is over 30 µM; in assay [8] it was over 30 µM; in [9], over 10 µM; in assay [10] it was over 30 µM; in [11] it was 12.5 µM.

Consider `CCCCC[C@H](O)/C=C/[C@H]1[C@H](O)CC(=O)[C@@H]1C/C=C\CCCC(=O)O` [DINOPROSTONE], for which the AC50 in assay [1], in assay [2], in assay [3], in assay [4], in [5] and in assay [6] was over 30 µM in each case. The AC50 in assay [7], in assay [8], in assay [9], in assay [10] and in assay [11] was over 30 µM in each case.

Consider `Clc1ccc2c(c1)C(c1ccccc1)=NCc1nncn1-2` [ESTAZOLAM], for which the half-maximal activity concentration (AC50) in [1] was over 10 µM; in [2] it was over 30 µM; in [3], over 10 µM; in assay [4], over 10 µM; in [5] it was over 10 µM; in [6], over 30 µM. The AC50 in [7] is over 30 µM; in assay [8], over 30 µM; in [9], over 10 µM; in [10], over 30 µM; in assay [11] it was over 30 µM.
